Results from PubChem BioAssay AID330 (DTP/NCI, 2004).
Where “and” joins values, the source holds several entries; their conditions need not be identical. Identical values can stand only once. Inconclusive results and toxic doses are left out. How the source made its calls: active means survival T/C of 150% or more; inactive means T/C below 125% in these data.

Tested on: P388 leukemia ip, CD2F1 mice, survival T/C
Assay: NCI In Vivo Anticancer Drug Screen. Data for tumor model P388 Leukemia (intraperitoneal) in CD2F1 (CDF1) mice
Conditions: endpoint: median survival time, higher = longer survival
Method in brief: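 Mice carrying the transplanted tumor received test compound or vehicle. Survival was recorded in each group, and the value is the treated-group measurement divided by that of the vehicle-treated control group.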

[1] = dose: 25.0 mg/kg/injection, schedule: Q01DX005 (ip), vehicle: saline with Tween-80
[2] = dose: 50.0 mg/kg/injection, schedule: Q01DX005 (ip), vehicle: saline with Tween-80
[3] = dose: 100.0 mg/kg/injection, schedule: Q01DX005 (ip), vehicle: saline with Tween-80
[4] = dose: 200.0 mg/kg/injection, schedule: Q01DX005 (ip), vehicle: saline with Tween-80

Measured: T/C

COc1cc2c(cc1OC)C1CC(=O)C(C3(O)C(=O)Nc4ccccc43)CN1CC2 (stereo not drawn)
inactive: dose: 100.0 mg/kg/injection, schedule: Q04DX003 (ip), vehicle: Klucel (hydroxypropylcellulose) (HPC) 99 % of control | dose: 200.0 mg/kg/injection, schedule: Q04DX003 (ip), vehicle: Klucel (hydroxypropylcellulose) (HPC) 99 % of control | dose: 400.0 mg/kg/injection, schedule: Q04DX003 (ip), vehicle: Klucel (hydroxypropylcellulose) (HPC) 112 % of control

[N-]=[N+]=CC(=O)C1OC1c1ccc(Br)cc1 (stereo not drawn)
inactive: [1] 98 % of control | [2] 93 % of control | [3] 91 % of control | [4] 95 % of control

C/C1=N/N=C(N)\N=C(\C)CC1
inactive: dose: 50.0 mg/kg/injection, schedule: Q01DX009 (ip), vehicle: saline 90 % of control | dose: 100.0 mg/kg/injection, schedule: Q01DX009 (ip), vehicle: saline 102 % of control | dose: 200.0 mg/kg/injection, schedule: Q01DX009 (ip), vehicle: saline 101 % of control

C=C1C(=O)OC2/C=C(\COC(C)=O)CC/C=C(/COC(=O)C(C)CC)CC(O)C12 (stereo not drawn) (tested in a mixture with another compound)
inactive: dose: 2.0 mg/kg/injection, schedule: Q01DX009 (ip), vehicle: Klucel (hydroxypropylcellulose) (HPC) 119 % of control | dose: 4.0 mg/kg/injection, schedule: Q01DX009 (ip), vehicle: Klucel (hydroxypropylcellulose) (HPC) 114 % of control | dose: 8.0 mg/kg/injection, schedule: Q01DX009 (ip), vehicle: Klucel (hydroxypropylcellulose) (HPC) 113 % of control | dose: 16.0 mg/kg/injection, schedule: Q01DX009 (ip), vehicle: Klucel (hydroxypropylcellulose) (HPC) 111 % of control | dose: 32.0 mg/kg/injection, schedule: Q01DX009 (ip), vehicle: Klucel (hydroxypropylcellulose) (HPC) 120 % of control

NC(=O)c1nn[nH]n1
inactive: dose: 50.0 mg/kg/injection, schedule: Q01DX009 (ip), vehicle: Klucel (hydroxypropylcellulose) (HPC) 97 % of control | dose: 100.0 mg/kg/injection, schedule: Q01DX009 (ip), vehicle: Klucel (hydroxypropylcellulose) (HPC) 100 % of control

Cc1cc(=O)c2c(ccc3cc4ccccc4cc32)[nH]1
inactive: [2] 98 % of control | [3] 98 % of control | [4] 97 % of control

COc1c2c(c(OC)c3c1c(=O)c1ccccc1n3C)OCO2
inactive: [2] 104 % of control | [3] 104 % of control | [4] 100 % of control

COc1ccc(C(O)Cc2ccccc2)cc1 (stereo not drawn)
inactive: dose: 31.25 mg/kg/injection, schedule: Q01DX009 (ip), vehicle: saline + Tween-80 + alcohol 93 % of control | dose: 62.5 mg/kg/injection, schedule: Q01DX009 (ip), vehicle: saline + Tween-80 + alcohol 91 % of control | dose: 125.0 mg/kg/injection, schedule: Q01DX009 (ip), vehicle: saline + Tween-80 + alcohol 91 % of control | dose: 250.0 mg/kg/injection, schedule: Q01DX009 (ip), vehicle: saline + Tween-80 + alcohol 89 % of control

O=C(NNc1ccccc1)N(Nc1ccccc1)C(=O)Nc1ccccc1
inactive: [2] 99 % of control | [3] 91 % of control | [4] 99 % of control

C#CCOC(=O)C12CCC(C)(C)CC1C1=CCC3C4(C)CCC(O)C(C)(CO)C4CCC3(C)C1(C)CC2 (stereo not drawn)
inactive: dose: 12.5 mg/kg/injection, schedule: Q01DX005 (ip), vehicle: saline with Tween-80 101 % of control | [1] 94 % of control

C=C(C)C1CC=C(C)C(OCCN(CC)CC)C1 (stereo not drawn)
inactive: dose: 50.0 mg/kg/injection, schedule: Q01DX005 (ip), vehicle: Klucel (hydroxypropylcellulose) (HPC) 100 % of control | dose: 100.0 mg/kg/injection, schedule: Q01DX005 (ip), vehicle: Klucel (hydroxypropylcellulose) (HPC) 103 % of control

N#Cc1c(N)nc(N)nc1Nc1ccc(Cl)cc1
inactive: dose: 60.0 mg/kg/injection, schedule: Q01DX005 (ip), vehicle: saline with Tween-80 113 % of control | dose: 120.0 mg/kg/injection, schedule: Q01DX005 (ip), vehicle: saline with Tween-80 110 % of control | dose: 240.0 mg/kg/injection, schedule: Q01DX005 (ip), vehicle: saline with Tween-80 115 % of control

NC(=O)CCCC(C(N)=O)(c1ccccc1)c1ccccc1
inactive: dose: 100.0 mg/kg/injection, schedule: Q01DX001 (ip), vehicle: Klucel (hydroxypropylcellulose) (HPC) 101 % of control | dose: 200.0 mg/kg/injection, schedule: Q01DX001 (ip), vehicle: Klucel (hydroxypropylcellulose) (HPC) 100 % of control | dose: 400.0 mg/kg/injection, schedule: Q01DX001 (ip), vehicle: Klucel (hydroxypropylcellulose) (HPC) 100 % of control

COc1ccc(OC)c2c1nc(CBr)n2C
inactive: dose: 16.25 mg/kg/injection, schedule: Q01DX005 (ip), vehicle: DMSO 104 % of control | dose: 32.5 mg/kg/injection, schedule: Q01DX005 (ip), vehicle: DMSO 93 % of control

COC1=C(N)C(=O)c2nc(-c3nc(C=O)c(C)c(-c4ccc(OC)c(OC)c4O)c3N)ccc2C1=O
inactive: dose: 0.18 mg/kg/injection, schedule: Q01DX009 (ip), vehicle: DMSO 116 % of control | dose: 0.3 mg/kg/injection, schedule: Q01DX009 (ip), vehicle: DMSO 115 % of control | dose: 0.3 mg/kg/injection, schedule: Q01DX009 (ip), vehicle: other 115 % of control | dose: 0.33 mg/kg/injection, schedule: Q01DX009 (ip), vehicle: DMSO 104 % of control | dose: 0.55 mg/kg/injection, schedule: Q01DX009 (ip), vehicle: DMSO 124 % of control | dose: 0.55 mg/kg/injection, schedule: Q01DX009 (ip), vehicle: other 124 % of control | dose: 0.62 mg/kg/injection, schedule: Q01DX009 (ip), vehicle: other 120 % of control | dose: 0.63 mg/kg/injection, schedule: Q01DX009 (ip), vehicle: DMSO 110 % of control | dose: 0.93 mg/kg/injection, schedule: Q01DX009 (ip), vehicle: DMSO 121 % of control | dose: 1.05 mg/kg/injection, schedule: Q01DX009 (ip), vehicle: DMSO 124 % of control | dose: 1.05 mg/kg/injection, schedule: Q01DX009 (ip), vehicle: other 124 % of control | dose: 1.24 mg/kg/injection, schedule: Q01DX009 (ip), vehicle: other 110 % of control | dose: 1.53 mg/kg/injection, schedule: Q01DX009 (ip), vehicle: DMSO 118 % of control | dose: 1.55 mg/kg/injection, schedule: Q01DX009 (ip), vehicle: DMSO 124 % of control | dose: 1.55 mg/kg/injection, schedule: Q01DX009 (ip), vehicle: other 99 % of control and 100 % of control and 124 % of control | dose: 2.05 mg/kg/injection, schedule: Q01DX009 (ip), vehicle: DMSO 110 % of control | dose: 2.05 mg/kg/injection, schedule: Q01DX009 (ip), vehicle: other 110 % of control | dose: 3.03 mg/kg/injection, schedule: Q01DX009 (ip), vehicle: DMSO 84 % of control | dose: 3.1 mg/kg/injection, schedule: Q01DX009 (ip), vehicle: other 121 % of control | dose: 4.96 mg/kg/injection, schedule: Q01DX009 (ip), vehicle: other 92 % of control and 93 % of control | dose: 6.03 mg/kg/injection, schedule: Q01DX009 (ip), vehicle: DMSO 94 % of control | dose: 6.05 mg/kg/injection, schedule: Q01DX009 (ip), vehicle: DMSO 124 % of control | dose: 6.05 mg/kg/injection, schedule: Q01DX009 (ip), vehicle: other 124 % of control | dose: 6.2 mg/kg/injection, schedule: Q01DX009 (ip), vehicle: other 110 % of control | dose: 12.4 mg/kg/injection, schedule: Q01DX009 (ip), vehicle: other 56 % of control

O=C1NN=CC1CCCN=Cc1cc(Br)ccc1O (stereo not drawn)
inactive: dose: 50.0 mg/kg/injection, schedule: Q01DX009 (ip), vehicle: saline with Tween-80 96 % of control | dose: 100.0 mg/kg/injection, schedule: Q01DX009 (ip), vehicle: saline with Tween-80 104 % of control | dose: 200.0 mg/kg/injection, schedule: Q01DX009 (ip), vehicle: saline with Tween-80 114 % of control

CCCCCCCCCCCC[N+]1(CC)CCCCCC1
inactive: dose: 0.78 mg/kg/injection, schedule: Q01DX009 (ip), vehicle: saline 113 % of control | dose: 1.56 mg/kg/injection, schedule: Q01DX009 (ip), vehicle: saline 111 % of control | dose: 3.12 mg/kg/injection, schedule: Q01DX009 (ip), vehicle: saline 92 % of control
